{"source": "patent US9427482B2", "about": "“Agents for clearing biomolecules from circulation” (KONINKLIJKE PHILIPS N.V., priority 2010, dated 2016)", "experiment": "Mouse radiation dosimetry (voxelized mouse model, EGSNRC)", "protocol": "Radiation dosimetry estimates were calculated for a male human model (standard 73 Kg adult) and for a voxelized mouse model by using the mouse biodistribution data (Example 12, Tables 7 and 8) according to the MIRD methodology. Activity concentration in these organs were converted in percent injected dose (% ID) and decay corrected to the time of injection. The % ID for blood, muscle and bone were estimated from the % ID/g of tissue and assuming 6%, 42% and 11% of the body weight. Whenever possible the time activity curves were fitted by a two-phase exponential clearance function. The fitted function was then integrated analytically to yield the organ residence times (Table 9). […] The time activity curve of the tumor was fitted by a mono-exponential uptake function defined as F(t)=a0(1−exp(−a1t)).\nRadiation doses to the mouse organs were evaluated using the MIRD methodology where the S-factors in the mouse were calculated using a voxelized model of a mouse and the electron transport program EGSNRC to calculate energy deposition. The MOBY mouse phantom of Segars et al. was voxelized on a 0.2 mm grid and further modified to include the following organs: intestine wall and content, stomach wall and content, bladder wall and content and a 20 μl gall bladder. Finally, a 0.53 g tumor was added to the left side of the neck of the animal. Twenty-seven independent simulations, each for 10 millions decays, were performed with the program EGSNRC to calculate the energy deposition in each target organ for each source organ. The simulation included all decay particles from ^177Lu as listed in www.nndc.bnl.gov/MIRD tables. These S-factors were then used with the organ residence times measured above.", "data": [{"smiles": "O=C([O-])CN1CCN(CC(=O)[O-])CCN(CC(=O)NCCOCCOCCOCCOCCOCCOCCOCCOCCOCCOCCOCCNC(=O)CCCC(=O)Nc2ccc(-c3nnc(-c4ccccn4)nn3)nc2)CCN(CC(=O)[O-])CC1.[177Lu+3]", "note": "[^177Lu-tetrazine]", "values": [{"measurement": "Effective Dose", "result": 15.6, "unit": "mSv/MBq"}, {"measurement": "Organ Radiation dose Bladder Wall", "result": 168, "unit": "mGy/MBq"}, {"measurement": "Organ Radiation dose Brain", "result": 1, "unit": "mGy/MBq"}, {"measurement": "Organ Radiation dose Cranium", "result": 13, "unit": "mGy/MBq"}, {"measurement": "Organ Radiation dose Femur", "result": 8, "unit": "mGy/MBq"}, {"measurement": "Organ Radiation dose Gall Bladder", "result": 2, "unit": "mGy/MBq"}, {"measurement": "Organ Radiation dose Heart Wall", "result": 2, "unit": "mGy/MBq"}, {"measurement": "Organ Radiation dose Intestine Wall", "result": 9, "unit": "mGy/MBq"}, {"measurement": "Organ Radiation dose Kidneys", "result": 58, "unit": "mGy/MBq"}, {"measurement": "Organ Radiation dose Liver", "result": 10, "unit": "mGy/MBq"}, {"measurement": "Organ Radiation dose Lungs", "result": 5, "unit": "mGy/MBq"}, {"measurement": "Organ Radiation dose Pancreas", "result": 2, "unit": "mGy/MBq"}, {"measurement": "Organ Radiation dose Ribs", "result": 8, "unit": "mGy/MBq"}, {"measurement": "Organ Radiation dose Skin", "result": 1, "unit": "mGy/MBq"}, {"measurement": "Organ Radiation dose Spine", "result": 8, "unit": "mGy/MBq"}, {"measurement": "Organ Radiation dose Spine (marrow)", "result": 7, "unit": "mGy/MBq"}, {"measurement": "Organ Radiation dose Spleen", "result": 15, "unit": "mGy/MBq"}, {"measurement": "Organ Radiation dose Stomach Wall", "result": 16, "unit": "mGy/MBq"}, {"measurement": "Organ Radiation dose Testes (ovaries)", "result": 1, "unit": "mGy/MBq"}, {"measurement": "Organ Radiation dose Thyroid", "result": 1, "unit": "mGy/MBq"}, {"measurement": "Organ Radiation dose Trachea", "result": 2, "unit": "mGy/MBq"}, {"measurement": "Radiation dose Whole Body", "result": 5, "unit": "mGy/MBq"}, {"measurement": "Radiation dose Tumor", "setting": "0.53 g tumor", "result": 479, "unit": "mGy/MBq"}]}]}
